From ChEMBL document CHEMBL1147203, “Phosph(on)ate as a zinc-binding group in metalloenzyme inhibitors: X-ray crystal structure of the antiviral drug foscarnet complexed to human carbonic anhydrase I” (Bioorg Med Chem Lett, 2007) come the findings set out here.

As usually defined, the Ki is the equilibrium dissociation constant of an inhibitor or competing ligand from its target.

One experiment concerns the target Carbonic anhydrase 7 (Homo sapiens, UniProt P43166). Nature of the experiment: Inhibition of human recombinant CA7 by CO2 hydration assay.
The target in the next experiment is Carbonic anhydrase 13 (Mus musculus, UniProt Q9D6N1). Nature of the experiment: Inhibition of mouse recombinant CA13 by CO2 hydration assay.
Sequence of Carbonic anhydrase 13 (Q9D6N1 whole entry): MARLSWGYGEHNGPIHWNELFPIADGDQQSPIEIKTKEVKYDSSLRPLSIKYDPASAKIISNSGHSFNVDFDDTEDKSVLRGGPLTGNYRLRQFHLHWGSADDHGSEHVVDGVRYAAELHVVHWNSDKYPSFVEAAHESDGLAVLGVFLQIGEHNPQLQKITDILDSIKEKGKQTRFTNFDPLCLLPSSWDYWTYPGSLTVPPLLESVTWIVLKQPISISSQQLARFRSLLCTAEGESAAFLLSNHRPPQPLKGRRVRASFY
In experiment [1] the target is Carbonic anhydrase 5B, mitochondrial (Homo sapiens, UniProt Q9Y2D0). Nature of the experiment: Inhibition of human recombinant CA5B by CO2 hydration assay.
Sequence of Carbonic anhydrase 5B, mitochondrial (Q9Y2D0 whole entry): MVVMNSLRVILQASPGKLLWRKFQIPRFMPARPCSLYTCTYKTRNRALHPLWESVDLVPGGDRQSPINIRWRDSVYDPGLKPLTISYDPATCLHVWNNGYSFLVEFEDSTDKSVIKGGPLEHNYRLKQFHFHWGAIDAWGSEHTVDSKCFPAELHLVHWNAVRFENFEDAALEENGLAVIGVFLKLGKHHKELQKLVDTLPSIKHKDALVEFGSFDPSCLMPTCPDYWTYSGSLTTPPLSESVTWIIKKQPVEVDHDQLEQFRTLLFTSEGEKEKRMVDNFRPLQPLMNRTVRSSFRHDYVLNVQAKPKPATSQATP
Another experiment addresses Carbonic anhydrase 12 (Homo sapiens, UniProt O43570). Nature of the experiment: Inhibition of human recombinant CA12 by CO2 hydration assay.
Another experiment addresses Carbonic anhydrase 6 (Homo sapiens, UniProt P23280). Kind of experiment: Inhibition of human recombinant CA6 by CO2 hydration assay.
The target in another experiment is Carbonic anhydrase 14 (Homo sapiens, UniProt Q9ULX7). Nature of the experiment: Inhibition of human recombinant CA14 by CO2 hydration assay.
Sequence of Carbonic anhydrase 14 (Q9ULX7 whole entry): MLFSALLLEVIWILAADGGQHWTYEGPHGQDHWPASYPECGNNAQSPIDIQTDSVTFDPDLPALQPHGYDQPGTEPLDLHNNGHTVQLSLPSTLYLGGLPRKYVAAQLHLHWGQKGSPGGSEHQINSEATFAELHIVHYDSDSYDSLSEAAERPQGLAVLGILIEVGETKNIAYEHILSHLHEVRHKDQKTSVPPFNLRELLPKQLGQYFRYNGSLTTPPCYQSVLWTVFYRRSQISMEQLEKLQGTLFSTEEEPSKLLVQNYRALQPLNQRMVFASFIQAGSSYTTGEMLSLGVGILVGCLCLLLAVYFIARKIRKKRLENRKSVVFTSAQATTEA

Sequence of Carbonic anhydrase 7 (P43166 whole entry): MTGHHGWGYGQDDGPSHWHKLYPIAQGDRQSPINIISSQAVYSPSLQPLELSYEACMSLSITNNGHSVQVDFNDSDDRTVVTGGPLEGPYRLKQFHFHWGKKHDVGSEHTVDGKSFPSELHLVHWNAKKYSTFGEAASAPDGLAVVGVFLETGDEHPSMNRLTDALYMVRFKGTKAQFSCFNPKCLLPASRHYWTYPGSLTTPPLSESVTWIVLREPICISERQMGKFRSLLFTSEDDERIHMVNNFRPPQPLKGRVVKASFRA
Sequence of Carbonic anhydrase 6 (P23280 whole entry): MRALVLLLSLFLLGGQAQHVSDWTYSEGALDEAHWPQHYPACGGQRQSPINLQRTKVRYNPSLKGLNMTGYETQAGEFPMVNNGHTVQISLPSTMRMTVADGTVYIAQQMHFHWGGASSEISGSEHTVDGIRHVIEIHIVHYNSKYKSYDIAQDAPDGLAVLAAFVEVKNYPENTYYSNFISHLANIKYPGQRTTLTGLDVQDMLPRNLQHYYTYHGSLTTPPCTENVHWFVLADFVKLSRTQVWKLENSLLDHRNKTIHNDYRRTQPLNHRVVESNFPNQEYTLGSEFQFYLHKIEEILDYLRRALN
Sequence of Carbonic anhydrase 12 (O43570 whole entry): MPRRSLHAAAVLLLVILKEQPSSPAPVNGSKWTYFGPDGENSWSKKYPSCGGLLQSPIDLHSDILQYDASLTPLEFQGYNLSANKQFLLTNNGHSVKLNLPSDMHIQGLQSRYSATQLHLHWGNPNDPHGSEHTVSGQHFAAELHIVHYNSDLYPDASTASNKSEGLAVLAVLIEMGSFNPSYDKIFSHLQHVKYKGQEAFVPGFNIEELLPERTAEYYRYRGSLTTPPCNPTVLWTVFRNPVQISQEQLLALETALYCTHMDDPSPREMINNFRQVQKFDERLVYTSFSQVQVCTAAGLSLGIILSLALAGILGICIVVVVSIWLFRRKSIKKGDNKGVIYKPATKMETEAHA

In the case of `O=C(O)P(=O)(O)O` [FOSCARNET SODIUM], the inhibition constant (Ki) at Carbonic anhydrase 7 was found to be 560 µM; at Carbonic anhydrase 13, 870 µM; in experiment [1], 11800 µM; on Carbonic anhydrase 12, 1290 µM; at Carbonic anhydrase 6, 1810 µM; at Carbonic anhydrase 14, 3600 µM.
